Experimental data published in patent publication US20220142995A1, “DUAL ATM AND DNA-PK INHIBITORS FOR USE IN ANTI-TUMOR THERAPY” (XRAD Therapeutics, Inc., priority 2019, published 2022).

Legend:
[1] = test system: pKAP1/KAP1 in MDA-231 tumors; test: Pharmacodynamic assay, pKAP1/KAP1 in MDA-231 tumors; assay type: in vivo, mice
Excerpt: (§1) Tumor Studies. Female NCr nu/nu mice (Crl:NU(NCr)-Foxn1 nu, Strain 490) were obtained from Charles River at 5-6 weeks of age. All animal procedures used in these studies were approved by the Institutional Animal Care and Use Committee (IACUC) at Duke University.
(§2) FADU or MDA-MB-231 cells were harvested during log phase growth for in vivo implantation. The resuspended cells were washed three times in phosphate buffered saline (PBS) before preparing the working dilution in PBS. FADU cells were diluted to 1×10^7 cells/mL and MDA-MB-231 cells were diluted to 5×10^7 cells/mL. Each mouse was injected subcutaneously in the right flank with 100 μL of the cellular suspension. Tumor growth was monitored until the tumors reached a target volume of at least 100 mm^3, at which point mice were randomly stratified into four treatment groups.
(§3) The vehicle used in this study was 0.5% (Hydroxypropyl)methyl cellulose (HPMC) and 0.2% Tween80 dissolved in deionized water. The pH of the vehicle was adjusted to 7.0-8.0 and the vehicle was stored at 4° C. On each day of in vivo treatment an appropriate mass of test compound was added to the vehicle at room temperature. The mixture was vortexed as necessary to generate a final concentration of 1.6 mg/mL.
(§4) Pharmacodynamic (PD) assays. Tumor studies were performed as follows. Mice bearing FADU or MDA-231 tumors were pre-dosed with vehicle alone or compound 569 alone at 3, 6, and 10 mg/kg. Tumors were then irradiated with 10 Gy 45 min after vehicle or compound 569 administration or left unirradiated (vehicle and compound 569 at 10 mg/kg). Tumors were harvested 1 h post radiation.
(§5) Tissue homogenates for pharmacodynamic analyses were collected and processed as follows. Tumor tissues from FADU or MDA-MB-231 tumors were flash frozen in liquid nitrogen and pulverized on dry ice using a tissue pulverizer. A portion of the tumor powder was transferred into a microtube, followed by addition of 500 μL of RIPA buffer [[…], pH 8.0, 150 mM NaCl, 0.1% SDS, 0.5% sodium deoxycholate, 1% IGEPAL® CA-630 (Sigma, 18896)]. To 10 ml of RIPA buffer, 2 tablets each of Protease inhibitor and Phosphatase inhibitor (Roche, #04693159001 & #04906837001), 200 μL of 0.1 M PMSF and 160 μL of Aprotinin, (Sigma, A6279) were added. The suspension was homogenized on ice with a pellet pestle motor (KONTES) and incubated on ice for 30 minutes. Cell lysates were centrifuged at 13,200 rpm for 15 min at 4° C. and supernatants were transferred to a new tube and analyzed for protein concentration with a BCA kit (Pierce, 23227), followed by immunoblotting.

[2] = test system: MDA-MB-231 subcutaneous human xenograft; test: In vivo tumor growth delay study, MDA-MB-231 subcutaneous human xenograft mouse model
Excerpt: as §1, §2
Following implantation of the tumor cell lines, mice were monitored once weekly for tumor development. Upon detection, tumors were measured in two dimensions using digital calipers. Tumors were treated after reaching at least 100 mm^3 and were measured two to three times weekly following enrollment in one of the treatment groups. The study endpoint was defined as tumor quintupling from the volume at time of treatment.
as §3
In vivo tumor growth delay study was performed as follows. Following implantation of the tumor cell lines, mice were monitored once weekly for tumor development. Upon development of a tumor measuring at least 100 mm^3, tumor-bearing mice were stratified to one of 4 groups, utilizing 5 mice per group. Tumor volumes were between 100 and 500 mm^3. Vehicle or compound 569 (10 mg/kg) were administered by oral gavage once daily for three consecutive days (qd×3), alone or in combination with focal radiation. The delivered volume of vehicle or compound 569 was adjusted based on body weight of the individual animals. […]
Statistical and Graphical Analysis of the in vivo data. […] In order to adjust for the differing tumor sizes at the start of treatment, the relative tumor volume was calculated by dividing the tumor volume at each time point by the volume at baseline. […] When an animal exited the study due to tumor quintupling, the final tumor volume recorded for the animal was included with the data used to calculate the median volume at subsequent time points. […]

[3] = test system: pKAP1/KAP1 in FADU tumors; test: Pharmacodynamic assay, pKAP1/KAP1 in FADU tumors; assay type: in vivo, mice; conditions: for pKAP1/KAP1: FADU tumors
Excerpt: as §1, §2, §3, §4, §5

[4] = 10 Gy, 3 mg/kg oral, harvested 1 h post radiation
[5] = 10 Gy, 6 mg/kg oral, harvested 1 h post radiation
[6] = 10 Gy, 10 mg/kg oral, harvested 1 h post radiation

CC(C)NCCOc1ncc(-c2cc3c4c(cnc3cc2F)N(C)C(=O)C42CCC2)cc1NS(C)(=O)=O [Compound 569, N-(5-(7′-Fluoro-3′-methyl-2′-oxo-2′,3′-dihydrospiro[cyclobutane-1,1′-pyrrolo[2,3-c]quinolin]-8′-yl)-2-(2-(isopropylamino)ethoxy)pyridin-3-yl)methanesulfonamide]
pKAP1/KAP1 [1, 4]: 0.327 | pKAP1/KAP1 [1, 5]: 0.0130 | pKAP1/KAP1 [1, 6]: 0.00901 | pKAP1/KAP1 ([1]; no radiation, 10 mg/kg oral): −0.00319 | tumor growth curves and quintupling-free survival ([2]; MDA-MB-231, Group 2 (10 mg/kg qd×3 alone) versus Group 1 (vehicle)): nearly identical to those for Group 1 | overall survival compared to Group 1, Group 2 and Group 3 ([2]; MDA-MB-231, Group 4: 10 mg/kg + 3 Gy qd×3, P<0.01, logrank): significantly improved | animals found dead ([2]; MDA-MB-231, Group 4: 10 mg/kg + 3 Gy qd×3, unknown causes): One animal was found dead on Day 35 | tolerability ([2]; MDA-MB-231-bearing mice, 10 mg/kg qd×3 alone or with 3 Gy): well-tolerated | pKAP1/KAP1 [3, 4]: 0.0903 | pKAP1/KAP1 [3, 5]: 0.0982 | pKAP1/KAP1 [3, 6]: 0.156 | pKAP1/KAP1 ([3]; no radiation, 10 mg/kg oral): 0.00595 | inhibition at 10 mg/kg ([3]; Mus musculus, FADU and MDA231 tumors (FIGS. 4 and 5, Tables 2-5), 10 Gy, 10 mg/kg, read-out: inhibition of tumor levels of radiation-induced phosphorylation of KAP1): > 80%
